This note sets out measurements from PMC5585036 (Molecular pharmaceutics, 2017).

For data set [1], the target named is T1, Monocarboxylate transporter 6 (MCT6) (Homo sapiens, UniProt O15375).
T1 sequence (O15375 1-505): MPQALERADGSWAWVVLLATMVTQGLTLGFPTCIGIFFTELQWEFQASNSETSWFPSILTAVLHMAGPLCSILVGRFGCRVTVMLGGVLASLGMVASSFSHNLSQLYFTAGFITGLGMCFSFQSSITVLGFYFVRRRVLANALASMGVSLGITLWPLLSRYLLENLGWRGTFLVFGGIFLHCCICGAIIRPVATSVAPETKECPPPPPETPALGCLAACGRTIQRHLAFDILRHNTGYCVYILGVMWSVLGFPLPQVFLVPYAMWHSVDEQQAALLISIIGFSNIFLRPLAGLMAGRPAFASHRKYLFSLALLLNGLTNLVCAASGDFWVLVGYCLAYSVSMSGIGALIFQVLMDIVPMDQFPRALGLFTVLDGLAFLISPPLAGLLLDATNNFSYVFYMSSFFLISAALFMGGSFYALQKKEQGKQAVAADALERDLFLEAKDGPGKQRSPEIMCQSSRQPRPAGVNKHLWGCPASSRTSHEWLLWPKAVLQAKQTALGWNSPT
It counts as cell-based.

Data set [2] concerns the target T1, Monocarboxylate transporter 6 (MCT6). Nature of the data set: inhibition of [3H]bumetanide uptake in MCT6-expressing oocytes. It counts as cell-based.
Substrate in data set [3]: CCCCNc1cc(C(=O)O)cc(S(N)(=O)=O)c1Oc1ccccc1
Description: radiolabeled uptake in MCT6-expressing versus water-injected oocytes. It is filed as cell-based, Homo sapiens.

The term IC50 denotes the midpoint of a concentration-inhibition curve. The low end stands for higher potency, the high end for lower potency. In data set [1], `O=c1c(O)c(-c2ccc(O)cc2O)oc2cc(O)cc(O)c12` [morin] returned a half-inhibitory concentration (IC50) of 33.1 ± 3.29 µM.
In data set [1], `O=c1c(O)c(-c2ccc(O)c(O)c2)oc2cc(O)cc(O)c12` [quercetin] showed an IC50 of 25.3 ± 3.36 µM.
As usually defined, the Ki is a dissociation constant, usually derived from enzyme kinetics or from competition with a known ligand. Molecule `O=C(CCc1ccc(O)cc1)c1c(O)cc(O)cc1O` [phloretin] displayed a Ki in data set [2] of 22.8 ± 6.95 µM.

B1: Monocarboxylate transporter 6 (MCT6) (Homo sapiens) (protein)
chain: T1 sequence (O15375 1-505)
For orientation: Km means the concentration of substrate that gives half-maximal velocity. Turning to B1, in data set [3], the Km amounted to 60.5 ± 14.1 µM.
